Results on 5 molecules are retold here after patent publication US20220017501A1, “MICROBIOCIDAL THIAZOLE DERIVATIVES” (SYNGENTA PARTICIPATIONS AG, priority 2018, published 2022).

What is called chromatographic logP is lipophilicity estimated from chromatographic retention. As usually defined, the melting point is the temperature of the solid-liquid transition.

In data set [1] the test system is Monographella nivalis (Microdochium nivale). In words: Monographella nivalis (Microdochium nivale) / liquid culture (foot rot cereals). It is filed as cell-based. The settings on record: growth inhibition photometrically 4-5 days after application, read-out: control of Monographella nivalis. The method, then:
Example B7: Monographella Nivalis (Microdochium Nivale)/Liquid Culture (Foot Rot Cereals) Conidia of the fungus from cryogenic storage are directly mixed into nutrient broth (PDB potato dextrose broth). After placing a (DMSO) solution of test compound into a microtiter plate (96-well format), the nutrient broth containing the fungal spores is added. The test plates are incubated at 24° C. and the inhibition of growth is determined photometrically 4-5 days after application. […] […].23.

The subject of data set [2] is Pyrenophora teres. Kind of data set: Pyrenophora teres / barley / leaf disc preventative (net blotch). It is filed as in vivo. The settings on record: foliar, barley leaf segments, compared to untreated control. The method, then:
Example B14: Pyrenophora Teres/Barley/Leaf Disc Preventative (Net Blotch) Barley leaf segments cv. Hasso are placed on agar in a multiwell plate (24-well format) and sprayed with the formulated test compound diluted in water. The leaf […] inoculated with a spore suspension of the fungus 2 days after application. The inoculated leaf segments are incubated at 20° C. and 65% rh under a light regime of 12 h light/12 h darkness in a climate cabinet and the activity of a compound is assessed as disease control compared to untreated when an appropriate level of disease damage appears in untreated check leaf segments (5-7 days after application). […] […].23.

Data set [3] relates to Magnaporthe grisea (Pyricularia oryzae). Kind of data set: whole plant or invertebrate. It is filed as in vivo. To be noted: foliar, read-out: control of Magnaporthe grisea.
Data set [4] has as its system Blumeria graminis f. sp. tritici (Erysiphe graminis f. sp. tritici). In words: Blumeria graminis f. sp. tritici / wheat / leaf disc preventative (powdery mildew on wheat). To be noted: foliar, wheat leaf segments, compared to untreated control. The data set is classed as in vivo. Here is the method:
Example B4: Blumeria Graminis f. sp. Tritici (Erysiphe Graminis f. sp. Tritici)/Wheat/Leaf Disc Preventative (Powdery Mildew on Wheat) Wheat leaf segments cv. Kanzler are placed on agar in a multiwell plate (24-well format) and sprayed with the formulated test compound diluted in water. The leaf disks are inoculated by shaking powdery mildew infected plants above the test plates 1 day after application. The inoculated leaf disks are incubated at 20° C. and 60% rh under a light regime of 24 h darkness followed by 12 h light/12 h darkness in a climate chamber and the activity of a compound is assessed as percent disease control compared to untreated when an appropriate level of disease damage appears on untreated check leaf segments (6-8 days after application). […].23.

For data set [5], the system named is Mycosphaerella graminicola (Septoria tritici). Kind of data set: Mycosphaerella graminicola (Septoria tritici) / liquid culture (Septoria blotch). To be noted: Zymoseptoria tritici, growth inhibition photometrically 4-5 days after application, read-out: control of Mycosphaerella graminicola. It is filed as cell-based. The method, then: Example B16: Mycosphaerella Graminicola (Septoria Tritici)/Liquid Culture (Septoria Blotch) Conidia of the fungus from cryogenic storage are directly mixed into nutrient broth (PDB potato dextrose broth). After placing a (DMSO) solution of test compound into a microtiter plate (96-well format), the nutrient broth containing the fungal spores is added. The test plates are incubated at 24° C. and the inhibition of growth is determined photometrically 4-5 days after application. […] […].23.

The test system of data set [6] is Fusarium culmorum. The data set is classed as in vivo. The settings on record: 200 ppm; wheat spikelets, preventative; compared to untreated control.
Data set [7] can be described thus: physchem. To be noted: pH 7.
The test system of data set [8] is Glomerella lagenarium (Colletotrichum lagenarium). Kind of data set: Glomerella lagenarium (Colletotrichum lagenarium) / liquid culture (anthracnose). The data set is classed as cell-based. To be noted: Colletotrichum orbiculare, growth inhibition photometrically 3-4 days after application, read-out: control of Glomerella lagenarium. Here is the method: Example B3: Glomerella Lagenarium (Colletotrichum Lagenarium)/Liquid Culture (Anthracnose) Conidia of the fungus from cryogenic storage are directly mixed into nutrient broth (PDB potato dextrose broth). After placing a (DMSO) solution of test compound into a microtiter plate (96-well format), the nutrient broth containing the fungal spores is added. The test plates are incubated at 24° C. and the inhibition of growth is measured photometrically 3-4 days after application.

Data set [9] can be described thus: Photostability, thin-film irradiation (Atlas Suntest). The settings on record: thin film on glass, filtered xenon lamp 750 W/m2; time for first 50% loss. It is filed as physicochemical. Here is the method:
Throughout the following description, LogP means logarithm of the partition coefficient, ppm means parts per million, and T50 represents the half-time of the compound under irradiation conditions.
Photostability tests were carried out by irradiation of thin-film deposits of compounds and 20 formulations on glass surfaces, using a filtered xenon lamp system (Atlas Suntest) which reproduces the spectrum and intensity of sunlight. The spectral output power of the Suntest was set to 750 W/m2, which is the typical daily maximum irradiance level at noon (UK, midsummer).
Test compounds were typically dissolved in HPLC grade methanol to give 1 g/L stock solutions. Alternatively, formulated compounds were suspended in water at the same concentration. 2 μL droplets of test solutions were spotted onto microscope cover slips in a 3D printed holder, allowed to dry then irradiated in the Suntest for varying times. […] Solutions were analysed by reverse phase HPLC, typically using a Waters UPLC system with Photodiode Array (PDA) and Waters columns (BEH C18, 100×2.1mm×1.7 μm) using mixed aqueous:acetonitrile mobile phase, acidifed with 0.2% formic acid. Peak detection was at the optimum wavelength for each candidate compound and PDA peak areas were used for quantification. […]

In data set [10] the test system is Mycosphaerella arachidis (Cercospora arachidicola). Kind of data set: Mycosphaerella arachidis (Cercospora arachidicola) / liquid culture (early leaf spot). The data set is classed as cell-based. To be noted: growth inhibition photometrically 4-5 days after application, read-out: control of Mycosphaerella arachidis. Here is the method:
Example B8: Mycosphaerella Arachidis (Cercospora Arachidicola)/Liquid Culture (Early Leaf Spot) Conidia of the fungus from cryogenic storage are directly mixed into nutrient broth (PDB potato dextrose broth). After placing a (DMSO) solution of test compound into a microtiter plate (96-well format), the nutrient broth containing the fungal spores is added. The test plates are incubated at 24° C. and the inhibition of growth is determined photometrically 4-5 days after application. […] […].23.

Data set [11] is classed as physicochemical. To be noted: for Solubility in water: pH 7.2. The method, then: Saturated solutions of test compounds were prepared in either aqueous buffer solutions (10 mM mixed phosphate, pH 7.20) or in heptane. Typically 1 mg of test compound in a 2 dram vial with 1 mL of buffer or heptane was left overnight (20 hours) on a roller shaker after an initial 20 minute period in a sonic bath. Saturated samples were then filtered through Millex-HV 0.45 micron syringe driven filters (aqueous or non-aqueous version dependent on solvent). […] Protocol variations included pre-saturation of the filters for compounds expected to have very low solubility, and centrifugation of the saturated samples for oils.

Data set [12] concerns Puccinia recondita f. sp. tritici. Kind of data set: Puccinia recondita f. sp. tritici / wheat / leaf disc preventative (brown rust). The data set is classed as in vivo. The settings on record: foliar, wheat leaf segments, preventative (inoculated 1 day after application), compared to untreated control, read-out: control of Puccinia recondite f. sp. tritici. The method, then:
Example B12: Puccinia Recondita f. sp. Tritici/Wheat/Leaf Disc Preventative (Brown Rust) Wheat leaf segments cv. Kanzler are placed on agar in multiwell plates (24-well format) and sprayed with the formulated test compound diluted in water. The leaf disks are inoculated with a spore suspension of the fungus 1 day after application. The inoculated leaf segments are incubated at 19° C. and 75% rh under a light regime of 12 h light/12 h darkness in a climate cabinet and the activity of a compound is assessed as percent disease control compared to untreated when an appropriate level of disease damage appears in untreated check leaf segments (7-9 days after application). […] […].23.

In the case of `Cc1sc(N(C#N)c2cc(F)nc(F)c2)nc1C(=O)NC1CCC1(C)C` (centres unmarked) [I.b.23, 2-[cyano-(2,6-difluoro-4-pyridyl)amino]-N-(2,2-dimethylcyclobutyl)-5-methyl-thiazole-4-carboxamide], the inhibition of growth at 20 ppm in data set [1], in data set [5], in data set [8] and in data set [10] was not below 80% throughout. The pest or weed control at 200 ppm in data set [2], in data set [3] and in [4] was not below 80% in each case. Also, the “control of Fusarium culmorum” value in [6] is “at least 80%”. Further, the chromatographic logP in [7] is 3.76. Further, the “Photostability T50” value in [9] is 11 h. This molecule registered a Solubility in heptane in data set [11] of 699 ppm. The Solubility in water in [11] was 2.5 ppm.
In turn, `Cc1sc(Nc2cc(F)nc(F)c2)nc1C(=O)NC1CCC1(C)C` (centres unmarked) [Compound E-0, 2-[(2,6-difluoro-4-pyridyl)amino]-N-(2,2-dimethylcyclobutyl)-5-methyl-thiazole-4-carboxamide, reference compound] returned a chromatographic logP in data set [7] of 5.08. For the same molecule, the “Photostability T50” value in [9] was 3.5 h. In data set [11], this molecule had a Solubility in heptane of 4.1 ppm and a Solubility in water of 0.70 ppm.
`Cc1sc(N(C#N)c2cncc(F)c2)nc1C(=O)NC1CCC1(C)C` (centres unmarked) [I.b.18, 2-[cyano-(5-fluoro-3-pyridyl)amino]-N-(2,2-dimethylcyclobutyl)-5-methyl-thiazole-4-carboxamide]: the melting point lay within 150 to 152 °C. For the same molecule, in [1], the inhibition of growth at 20 ppm is not below 80%. Further, the pest or weed control at 200 ppm in data set [3] was not below 80%. This molecule gave a pest or weed control at 200 ppm in data set [4] not below 80%. The inhibition of growth at 20 ppm in [5] was not below 80%. For the same molecule, in data set [8], the inhibition of growth at 20 ppm was not below 80%. Further, the pest or weed control at 200 ppm in data set [12] was not below 80%. Moreover, the inhibition of growth at 20 ppm in data set [10] was not below 80%.
For the molecule `Cc1sc(N(C#N)c2cc(F)nc(F)c2)nc1C(=O)NC1CCC12Cc1ccccc1C2` (centres unmarked) [I.d.23, 2-[cyano-(2,6-difluoro-4-pyridyl)amino]-5-methyl-N-spiro[cyclobutane-2,2′-indane]-1-yl-thiazole-4-carboxamide], the inhibition of growth at 20 ppm in [1], in [5], in data set [8] and in data set [10] was not below 80% throughout. For the same molecule, the pest or weed control at 200 ppm in data set [2], in data set [3] and in data set [4] was not below 80% each time.
Consider `Cc1sc(N(C#N)c2cc(F)nc(F)c2)nc1C(=O)NCC(C)(C)C` [I.k.23, 2-[cyano-(2,6-difluoro-4-pyridyl)amino]-N-(2,2-dimethylpropyl)-5-methyl-thiazole-4-carboxamide], for which the inhibition of growth at 20 ppm in data set [1], in data set [5], in data set [8] and in [10] was not below 80% throughout. In addition, the pest or weed control at 200 ppm in data set [2], in data set [3] and in [4] was not below 80% throughout.
